Results published in patent US20220339150A1, “ENDOCANNABINOID SYSTEM-TARGETING PRODRUGS AND THERAPEUTIC USES THEREOF” (priority 2021, published 2022).
“Also recorded” adds a separate entry of the source. Like-named read-outs stand apart in the source and are kept apart here.

Tests used:
[1] = Metabolic stability in human liver microsomes; format: in vitro ADME; details: for microsomal CLint / Half-life in human liver microsomes (single determinations): Table 5
Method: The prodrugs were incubated with the human liver microsomes at 37° C. as an indication of the susceptibility of prodrugs to undergo bioconversion in the liver. The reactions were initiated by adding 1.5 μL of the prodrug stock solution (10 mg/mL in DMSO) to a preheated solution consisting of 748.5 μL potassium phosphate buffer solution (20 mM, pH 7.4, ionic strength 0.5), 200 μL NADPH, and 50 μLhuman liver microsomes (mixed gender, 0.5 ml at 20 mg/mL). The solutions were stirred at a constant temperature of 37° C. At appropriate intervals, 50 μLof samples were mixed with 100 μL of ice-cold MeOH. After immediate mixing and centrifugation (5 min at 14.000 rpm), the resulting clear supernatant was analyzed for the remaining prodrug by HPLC.

[2] = system: reconstructed human oral buccal epithelium cells (SkinEthic HOE, TR146 cells); test: In vitro buccal permeability (SkinEthic human oral epithelium); format: in vitro ADME; details: for Flux (buccal) / Flux compared with parent cannabinoid / Species making up the buccal flux / formation of parent cannabinoid: Table 4; for Flux (buccal): suspension ca. 2 mg/ml in 5% EtOH/phosphate buffer pH 6.8, 37° C., receiver 15% HP-β-cyclodextrin; for Flux compared with parent cannabinoid: buccal flux relative to parent; for Species making up the buccal flux / formation of parent cannabinoid / Species making up the buccal flux (parent vs intact prodrug): remark in flux cell; for Buccal permeation compared with parent cannabinoid (in words): 5% ethanol suspension; for Species making up the buccal flux (parent vs intact prodrug): Table 2
Method: The in vitro permeability studies were carried out in commercial reconstructed human oral buccal epithelium cells (SkinEthic™ human oral epithelium). The SkinEthic™ HOE model is composed of TR146 cells (derived from a squamous cell carcinoma of the buccal mucosa) cultivated on an inert polycarbonate filter at the air-liquid interface in a chemically defined medium. This model forms an epithelial tissue devoid of stratum corneum, resembling histologically to the mucosa of the oral cavity.
Upon receiving the cells, each insert (0.5 cm^2 or 0.33 cm^2) was placed in a plate containing 800 μL fresh medium at room temperature. The culture dishes were placed in the incubator at 37° C., 5% CO2, and saturated humidity overnight. Next day, the inserts were placed in a plate containing 800 μL 15% HP-β-cyclodextrin in H2O. The prodrugs were dissolved in 100% EtOH (5% (V/V) final conc.), and then sodium phosphate buffer solution (50 mM, pH 6.8, isotonic, 37° C.) was added (95% (V/V) final conc.). 400 μL of the prodrugs were applied as suspensions (ca. 2 mg/ml). The plates were stirred gently at 37° C. At appropriate intervals, the receptor compartment was sampled (100 μL) and replenished with fresh […] solution each time. The samples were mixed with 100 μL of MeOH, and analyzed for drug (both the parent cannabinoid and the prodrug) by HPLC-MS.
The buccal flux-values for the rate of delivery of drugs were determined from Fick's law of diffusion.

[3] = Stability in 80% human plasma (serum); format: in vitro ADME; details: 80% human serum (pH 7.4) at 37° C.; for half-life: human, serum
Method: The rates of the degradation of the prodrugs were determined in 80% human serum (pH 7.4) at 37° C. as an indication of the susceptibility of prodrugs to undergo bioconversion after reaching the circulation. The reactions were initiated by adding the first 10 μL of the prodrug stock solution (10 mg/mL in DMSO) to 200 μL preheated sodium phosphate buffer solution (50 mM, pH 7.4, ionic strength 0.5), and then adding 800 μL preheated human serum. The solutions were stirred at a constant temperature of 37° C. At appropriate intervals, 50 μL of samples were mixed with 150 μL of ice-cold MeOH. After immediate mixing and centrifugation (5 min at 14.000 rpm), the resulting clear supernatant was analyzed for the remaining prodrug by HPLC.

[4] = Stability in aqueous solutions (sodium phosphate buffer, 37° C.); format: physicochemical; details: for half-life: buffer; for Half-life in aqueous solution: Table 5
Method: […] The solutions of prodrugs were prepared by adding 10 μL of stock solution (10 mg/mL in DMSO) to the preheated buffer. The solutions were stirred at a constant temperature of 37° C. At appropriate intervals, 75 μL of samples were mixed with 75 μL of MeOH and analyzed for remaining prodrug by HPLC.
The pseudo-first-order rate constants (kobs) and half-lives (t1/2) for the degradation of the prodrugs were determined from the linear slopes of the plots by taking the logarithm of the remaining prodrug over time. Equations: kobs=slope/−2.303 and t1/2=ln2/kobs.

[5] = both sexes, human, microsomes, pH 7.4, Table 5, 37° C., NADPH, read-out: Half-life in human liver microsomes (single determinations) (converted)
[6] = both sexes, human, microsomes, pH 7.4, Table 5, average of determinations, read-out: Half-life in human liver microsomes (avg.) (converted)
[7] = both sexes, human, microsomes, pH 7.4
[8] = both sexes, human, microsomes, pH 7.4, Table 3, 37° C., NADPH, read-out: Half-life in human liver microsomes (single determinations) (converted)
[9] = pH 6.8, Table 3, aqueous buffer pH 6.8, 37° C., read-out: Half-life in aqueous solution (converted)
[10] = aqueous buffer pH 6.8, 37° C., single determinations
[11] = pH 6.8, Table 5, aqueous buffer pH 6.8, 37° C., single determinations, read-out: Half-life in aqueous solution (converted)

SMILES: CCCCCc1cc(O)c2c(c1)OC(C)(CCC=C(C)C)C=C2 (stereo not shown) [CBC, Cannabichromene, reference compound]
- half-life [1, 5]: 1.93 h
- half-life [1, 6]: 1.86 h
- microsomal CLint [1, 7]: 6.21 µL/min/mg
- Flux (buccal) [2]: 27.87 ± 2.46 nmol/cm^2/h

SMILES: CCCCCc1cc(OC(=O)N2CCN(C)CC2)c2c(c1)OC(C)(CCC=C(C)C)C=C2 (stereo not shown) [CBCp1, 2-methyl-2-(4-methylpent-3-en-1-yl)-7-pentyl-2H-chromen-5-yl4-methylpiperazine-1-carboxylate]
- Half-life in human liver microsomes (single determinations) ([1]; 37° C., NADPH): 3.13 h
- half-life at 15 µg/mL [1, 5]: 4.18 h
- half-life at 15 µg/mL [1, 6]: 3.65 h
- Flux compared with parent cannabinoid [2]: No improvement
- Species making up the buccal flux / formation of parent cannabinoid [2]: NO significant formation of CBC
- Flux (buccal) [2]: 15.88 ± 0.70 (prodrug) nmol/cm^2/h
- Half-life in serum ([3]; Table 5): stable for 6 hrs

SMILES: CCCCCc1cc(OC(=O)N2CCNCC2)c2c(c1)OC(C)(CCC=C(C)C)C=C2 (stereo not shown) [CBCp3, 2-methyl-2-(4-methylpent-3-en-1-yl)-7-pentyl-2H-chromen-5-yl piperazine-1-carboxylate]
- half-life at 15 µg/mL [1, 6]: 14.9 h
- Flux compared with parent cannabinoid [2]: No improvement
- Species making up the buccal flux / formation of parent cannabinoid [2]: NO significant formation of CBC
- Flux (buccal) [2]: 5.74 ± 0.51 (prodrug) nmol/cm^2/h
- Half-life in serum ([3]; Table 5): stable for 6 hrs

SMILES: C=C(C)[C@@H]1CCC(C)=C[C@H]1c1c(O)cc(CCCCC)cc1OC(=O)CN1CCN(C)CC1 [CBDp7, (1′R,2′R)-6-hydroxy-5′-methyl-4-pentyl-2′-(prop-1-en-2-yl)-1′,2′,3′,4′-tetrahydro-[1,1′-biphenyl]-2-yl 2-(4-methylpiperazin-1-yl)acetate]
- half-life [1, 8]: 0.12 h
- Buccal permeation compared with parent cannabinoid (in words) [2]: better than that of CBD
- Species making up the buccal flux (parent vs intact prodrug) [2]: 1/3 CBD & 2/3
- half-life [4, 9]: 0.16 h
- half-life ([3]; pH 7.4, Table 3): 2.6 h

SMILES: C=C(C)[C@@H]1CCC(C)=C[C@H]1c1c(OC(=O)N2CCN(C)CC2)cc(CCCCC)cc1OC(=O)N1CCN(C)CC1 [CBDp14, (1′R,2′R)-5′-methyl-4-pentyl-2′-(prop-1-en-2-yl)-1′,2′,3′,4′-tetrahydro-[1,1′-biphenyl]-2,6-diyl bis(4-methylpiperazine-1-carboxylate)]
- half-life at 15 µg/mL [1, 8]: 0.86 h
- Buccal permeation compared with parent cannabinoid (in words) [2]: better than that of CBD; also recorded: significantly improved permeability compared to CBD
- Species making up the buccal flux (parent vs intact prodrug) [2]: only intact prodrug
- half-life ([4]; Table 3 footnote f, 20% of ethanol in the solution, read-out: Half-life in aqueous solution with ethanol): 50 h
- half-life [4, 9]: 2.5 h
- Half-life in serum ([3]; Table 3): stable

SMILES: C=C(C)[C@@H]1CCC(C)=C[C@H]1c1c(O)cc(CCCCC)cc1OC(=O)N1CCCCC1 [CBDp17, (1′R,2′R)-6-hydroxy-5′-methyl-4-pentyl-2′-(prop-1-en-2-yl)-1′,2′,3′,4′-tetrahydro-[1,1′-biphenyl]-2-yl piperidine-1-carboxylate]
- Species making up the buccal flux (parent vs intact prodrug) [2]: only intact prodrug

SMILES: C=C(C)[C@@H]1CCC(C)=C[C@H]1c1c(OC(=O)N2CCCCC2)cc(CCCCC)cc1OC(=O)N1CCCCC1 [CBDp18, (1′R,2′R)-5′-methyl-4-pentyl-2′-(prop-1-en-2-yl)-1′,2′,3′,4′-tetrahydro-[1,1′-biphenyl]-2,6-diyl bis(piperidine-1-carboxylate)]
- Species making up the buccal flux (parent vs intact prodrug) [2]: only intact prodrug

SMILES: C=C(C)[C@@H]1CCC(C)=C[C@H]1c1c(O)cc(CCCCC)cc1OC(=O)N1CCNCC1 [CBDp21, (1′R,2′R)-6-hydroxy-5′-methyl-4-pentyl-2′-(prop-1-en-2-yl)-1′,2′,3′,4′-tetrahydro-[1,1′-biphenyl]-2-yl piperazine-1-carboxylate]
- Buccal permeation compared with parent cannabinoid (in words) [2]: better than that of CBD
- Species making up the buccal flux (parent vs intact prodrug) [2]: only intact prodrug

SMILES: C=C(C)[C@@H]1CCC(C)=C[C@H]1c1c(OC(=O)C2CCNC2)cc(CCCCC)cc1OC(=O)C1CCNC1 (stereo partly drawn) [CBDp24, (1′R,2′R)-5′-methyl-4-pentyl-2′-(prop-1-en-2-yl)-1′,2′,3′,4′-tetrahydro-[1,1′-biphenyl]-2,6-diyl bis(pyrrolidine-3-carboxylate)]
- Buccal permeation compared with parent cannabinoid (in words) [2]: better than that of CBD; also recorded: superior when compared to CBD and other prodrugs
- Species making up the buccal flux (parent vs intact prodrug) [2]: mostly intact
- Stability in standard and aqueous solutions (in words) ([4]; Table 3 footnote e): ^e Could not be determined due to fast degradation in standard and aqueous solutions,

SMILES: CCCCCc1cc(O)c(C/C=C(\C)CCC=C(C)C)c(O)c1 [CBG, Cannabigerol, reference compound]
- microsomal CLint at 15 µg/mL [1, 7]: 7.18 µL/min/mg
- half-life at 15 µg/mL ([1]; both sexes, human, microsomes, pH 7.4, Half-life in human liver microsomes (avg.)): 1.61 h
- half-life at 15 µg/mL ([1]; both sexes, human, microsomes, pH 7.4, Half-life in human liver microsomes (single determinations)): 1.79 h
- Kobs (based on microsomes Half-life) ([1]; human, microsomes): 0.43

SMILES: CCCCCc1cc(O)c(C/C=C(\C)CCC=C(C)C)c(OC(=O)N2CCN(C)CC2)c1 [CBGp2, (E)-2-(3,7-dimethylocta-2,6-dien-1-yl)-3-hydroxy-5-pentylphenyl 4-methylpiperazine-1-carboxylate]
- Half-life in human liver microsomes (single determinations) ([1]; 37° C., NADPH): 1.73 h
- half-life at 15 µg/mL [1, 5]: 1.62 h
- half-life at 15 µg/mL [1, 6]: 1.68 h
- Flux compared with parent cannabinoid [2]: No improvement
- Species making up the buccal flux / formation of parent cannabinoid [2]: NO significant formation of CBG
- Flux (buccal) [2]: 4.45 ± 0.45 (prodrug) nmol/cm^2/h
- Half-life in aqueous solution [4, 10]: 1.17 h
- half-life [4, 11]: 1.14 h
- Half-life in serum ([3]; Table 5): No degradation

SMILES: CCCCCc1cc(O)c2c(c1)OC(C)(C)[C@@H]1CCC(C)=C[C@@H]21 [THC, Δ9-Tetrahydrocannabinol, reference compound]
- half-life [1, 5]: 0.17 h
- half-life [1, 6]: 0.18 h
- microsomal CLint [1, 7]: 64.2 µL/min/mg
- Flux (buccal) [2]: 19.65 ± 0.36 nmol/cm^2/h

SMILES: CCCCCc1cc(OC(=O)C2CCNC2)c2c(c1)OC(C)(C)[C@@H]1CCC(C)=C[C@@H]21 (stereo partly drawn) [THCp2, (6aR,10aR)-6,6,9-trimethyl-3-pentyl-6a,7,8,10a-tetrahydro-6H-benzo[c]chromen-1-yl pyrrolidine-3-carboxylate]
- Half-life in human liver microsomes (single determinations) ([1]; 37° C., NADPH): 2.79 h
- half-life [1, 5]: 2.09 h
- half-life [1, 6]: 2.44 h
- Half-life in aqueous solution [4, 10]: 0.46 h
- half-life [4, 11]: 0.49 h
- Half-life in serum ([3]; Table 5): 0.43 h
- half-life ([3]; pH 7.4, Table 5): 0.42 h
